In PMC12247024, “PCFT‐Independent Cellular Uptake of Cyclic Cell‐Penetrating Peptide‐Conjugated Folic Acid” (Chembiochem, 2025):
Positions of bridges follow the written chain, without caps; N, C: chain ends. Residues, ends and D or L forms follow the SMILES beside them.

Assays:
[1] = RP‐HPLC ACN elution (relative hydrophobicity); format: physicochemical; conditions: PFP column, water/acetonitrile gradient 5%–95% with 0.1% TFA, detection 220 nm, used by the paper as measure of overall hydrophobicity
Excerpt: Peptides were purified using a reverse‐phase high‐performance liquid chromatography (RP‐HPLC) system, Agilent Technologies (Santa Clara, CA, USA), with water and acetonitrile gradient (5%–95%), containing 0.1% TFA as the mobile phase. Pentafluorophenyl (PFP) column was used as the stationary phase, and samples were detected at the absorbance of 220 nm. Electronic spray ionization‐mass spectrometry (ESI‐MS) was used to determine the molecular weights of the synthesized peptides. Mass spectrometry data were provided by the AIMS Mass Spectrometry Laboratory at the University of Toronto. The peptide conjugates were characterized by electrospray ionization mass spectrometry (ESI‐MS) with agreement between the predicted and experimental molecular weights (Table 1). The peptides, cTAT‐folic acid conjugates, and fluorescein‐labeled conjugates were assessed for the peptide purity by analytical RP‐HPLC system (Figure S6–S11, Supporting Information). The broader peaks, peak splitting, and lower signaling intensity of cyclic peptide and their conjugates in the chromatograms are due to the limited interactions of the peptides with the HPLC columns. The appearance of double peaks for TAMRA conjugated linear and cyclic peptides and of folic acid is likely due to the use of 5‐ and 6‐TAMRA isomer, since isomeric dye conjugated molecules tend to show multiple peaks in RP‐HPLC.^[ [23] ^] […] The bioconjugation of folic acid with cTAT increased the overall hydrophobicity of the cyclic peptide (%ACN elution change from 24% to 34% for cTAT and cTAT‐folic acid respectively), and the ACN elution profile of the conjugates was similar to that of folic acid (Table 1).

[2] = tested on: DHFR activity in Caco‐2 cell lysates; experiment: DHFR assay in lysates of treated cells; format: cell-based; conditions: for DHFR activity in cell lysates: Caco‐2 treated at acidic pH for 4 h, NADPH absorbance 340 nm, mean, n = 3
Method: DHFR kit was purchased from Millipore Sigma and was used to analyze DHFR activity, according to manufacturer's protocol. DHFR enzyme catalyzes the reduction of dihydrofolic acid to tetrahydrofolic acid, which is reversible and NADPH‐dependent reaction.
Dihydrofolic acid + NADPH + H^+ ↔ Tetrahydrofolic acid + NADP^+
Briefly, 20 μM NADPH, 15 μM DHF, 5 μM DHFR, 50 mM Tris (pH 7.5), and 2 mg mL^−1 of cell lysates from Caco‐2 samples treated with 4.5 μM of cTAT‐folic acid conjugates and 20 μM folic acid were added to obtain final volume of 100 μL. DHFR activity at room temperature was monitored by continuously measuring the drop in NADPH concentration, by taking the absorbance at 340 nm for up to 2.5 min.
Figure 3 DHFR activity in units/mg of protein in Caco‐2 cells lysates, performed 4‐h post‐treatment. A) Cotreatment of cells with folic acid, cTAT‐folic acid conjugates, and myricetin and B) treatment of cell lysates with methotrexate (MTX). The values are mean ± standard error for n = 3, *p < 0.01. Units per mg indicate DHFR activity per mg of protein in the sample, where total protein content (mg) in each sample was measured by BCA assay.

[3] = tested on: IL‐1β and IFN‐β production in HD‐11 cells; experiment: Cytokine release (ELISA) upon IBDV infection; format: cell-based, chicken; conditions: HD‐11, IBDV at TCID50 for 1 h, then folic acid 20 μM or cTAT‐folic acid 4.5 μM, n = 3, p < 0.01
Method: A modified live IBDV vaccine, UNIVAX‐BDmild strain (ST12) from MSD Animal Health, was reconstituted with10 mL of PBS, and 500 μL aliquots were stored at −80 °C, according to previously reported procedures.^[ [25] ^] An aliquot of the vaccine was added to a tissue culture‐treated T‐25 flask containing confluent HD‐11 cells, and the flask was incubated at 37 °C with 5% CO2 for 1 h to reproduce the virus and to obtain multiplicity of infection (MOI = 1). Following this, 5 mL of media was added, and the cells were incubated for 72 h under the same conditions. After that, the supernatant was extracted, centrifuged for 10 min at 1000 × g, and 500 μL aliquots were taken out and kept at −80 °C to evaluate 50% tissue culture infective‐dose assay (TCID50) in HD‐11. […] The plate was incubated at 37 °C with 5% CO2 for 4 h, and TCID50 was evaluated by MTS assay, as described above.
HD‐11 and RAW 264.7 cells were cultured in folic acid free RPMI containing 10% FBS and 1% penicillin–[…] solution. […] After 24 h of incubation, cell culture supernatant were collected, and production of chicken IL‐1β and IFN‐β cytokines in HD‐11 was evaluated in triplicate by ELISA kits purchased from Genorise Scientific Inc. (Berwyn, PA 19 312, United States). The production of mouse IL‐1β, TNF‐α and IL‐10 was quantified in RAW 264.7 cells in triplicates by ELISA assay. […]

[4] = tested on: IL‐1β, TNF‐α and IL‐10 production in RAW 264.7 cells; experiment: Cytokine release (ELISA) upon LPS challenge; format: cell-based, mouse; conditions: RAW264.7, LPS for 1 h, then folic acid 20 μM or cTAT‐folic acid 4.5 μM, n = 3, p < 0.01
Method: HD‐11 and RAW 264.7 cells were cultured in folic acid free RPMI containing 10% FBS and 1% penicillin–[…] solution. Cytokine release profile from HD‐11 chicken macrophage cells and RAW 264.7 […] macrophage cells was studied by treating cells in growth phase (≈70% confluency) with 1 μg mL^−1 LPS or with IBDV at TCID50 for 1 h, followed by the addition of folic acid (20 μM) and cTAT‐folic acid conjugates (4.5 μM) in serum‐free, folic acid‐negative RPMI‐1640 medium. After 24 h of incubation, cell culture supernatant were collected, and production of chicken IL‐1β and IFN‐β cytokines in HD‐11 was evaluated in triplicate by ELISA kits purchased from Genorise Scientific Inc. (Berwyn, PA 19 312, United States). The production of mouse IL‐1β, TNF‐α and IL‐10 was quantified in RAW 264.7 cells in triplicates by ELISA assay.
Figure 4 ELISA assay showing A) cytokine expression in HD‐11 cells upon IBDV infection for 1 h, followed by the treatment with folic acid (20 μM) and cTAT‐folic acid conjugates (4.5 μM), and B) cytokine expression (IL‐1β, IL‐10, and TNF‐α) upon LPS (0.5 μg mL^−1) challenge of RAW 264.7 for 1 h, followed by the treatment with folic acid (20 μM) and cTAT‐folic acid conjugates (4.5 μM) for 4 h. The values are mean ± standard error for n = 3, *p < 0.01 and **p < 0.05.

[5] = tested on: T1, trypsin; experiment: Trypsin treatment, intact peptide by HPLC; format: in vitro ADME; conditions: isolated enzyme trypsin
T1 construct: purchased Sigma Aldrich / VWR Life Sciences
Excerpt: (§1) Compared with the linear peptides, cyclic analogs are well documented for enhanced physiological stability and resistance to enzymatic degradation.^[ [20], [21], [22] ^]

[6] = tested on: Caco‐2 cells; experiment: Cellular uptake of fluorophore‐labeled linear and cyclic peptides; format: cell-based; conditions: Caco‐2, fluorophore‐labeled peptides, fluorescence microscopy and cell lysates by microplate reader
Method: (§2) Caco‐2 and HD‐11 cells were then seeded in six‐well plates at a density of 2.0 × 10^5 cells per well, in 2 mL of RPMI no folic acid medium. After overnight incubation, the cells were further incubated for 4 h with fluorescent folic acid and with cTAT‐folic acid‐FL conjugates (4.5 μM) at 37 °C in a humidified atmosphere containing 5% CO2. The cells were washed with PBS, and relative fluorescence of the samples was analyzed with the microplate reader using excitation wavelength of 490 nm and emission wavelength of 520 nm.
as §1

[7] = tested on: HD‐11 cells; experiment: as above; format: cell-based, chicken; conditions: HD‐11, fluorophore‐labeled peptides, fluorescence microscopy and cell lysates by microplate reader
Method: as §2, §1

[8] = Trypsin treatment, intact peptide by HPLC; format: in vitro ADME; conditions: isolated enzyme trypsin, trypsin, HPLC chromatogram analysis, read-out: intact peptide after trypsin treatment
Excerpt: as §1

[9] = tested on: PCFT expression in Caco‐2 cells; experiment: WB analysis of PCFT/GAPDH expression; format: cell-based; conditions: Caco‐2, 50 μM, p < 0.01
Method: Caco‐2 cells were seeded in six well culture plate at 1 × 10^6 cells per well in RPMI 1640 folic acid negative medium for 24 h followed by the addition of folic acid, cTAT, and cTAT‐folic acid conjugates (0.1–200 μM) for 4 h. 0.5 mL of pre‐chilled RIPA lysis buffer at 4 °C was added to Caco‐2 cells in six‐well plate. The cell samples were scraped and centrifuged at 14 000 × g to remove cellular debris. The amount of protein in cell lysate was measured by using BCA assay. The protein samples (25 μg) were loaded directly onto 12% Tris·HCl polyacrylamide gels using 6X SDS loading buffer (1:1) containing DTT, and gel was run for 1 h at 110 V. After SDS‐PAGE, proteins were transferred to nitrocellulose membrane for 80 min at 110 V (Bio‐rad, Hercules, California, USA). […] Figure 2 PCFT/GAPDH expression in Caco‐2 cells was measured by the WBs as a function of concentration of, A) folic acid, B) cTAT‐folic acid conjugates, and C) comparison of cTAT‐folic acid conjugates (4.5 μM) with unconjugated cTAT + folic acid (4.5 μM).The experiments were replicated twice in triplicates (n = 3) and upon 4 h post‐treatment. […]

[10] = tested on: Caco‐2 cells; experiment: Cellular uptake of fluorescein‐labeled folic acid and conjugates; format: cell-based; conditions: Caco‐2, 4.5 μM
Method: as §2
The cellular uptake of fluorophore‐labeled folic acid (folic acid‐FL) and cTAT‐folic acid conjugates (cTAT‐folic acid‐FL) was studied at 4.5 μM concentration in Caco‐2 cells, at the physiological and acidic pH.
Figure 1 Cellular uptake of fluorescein‐labeled folic acid and cTAT‐folic acid conjugates (4.5 μM) in Caco‐2 cells in the presence and absence of inhibitors at A) acidic and B) physiological pH. C) WB analysis of PCFT/GAPDH expression in Caco‐2 cells in the presence of 50 μM myricetin. The experiments were replicated in triplicates (n = 3). The values are mean ± standard error for n = 3, *p < 0.01.

[11] = folic acid 20 μM, cTAT‐folic acid 4.5 μM

With `Nc1nc(=O)c2nc(CNc3ccc(C(=O)N[C@@H](CCC(=O)O)C(=O)O)cc3)cnc2[nH]1` [Folic acid] the “ACN elution [%]” value [1] was 34.06%, the “DHFR activity in cell lysates, cotreatment with myricetin” value ([2]; Caco‐2, acidic pH, 4 h, folic acid 20 μM, cTAT‐folic acid 4.5 μM, plus myricetin) was 10 units mg^−1 of protein and the “DHFR activity in MTX‐treated cell lysates” value ([2]; Caco‐2 lysates plus methotrexate 100 μM) was “negligible DHFR activity”. The “DHFR activity in cell lysates” value [2, 11] was 59 units mg^−1 of protein, the “production of proinflammatory cytokines in challenged macrophages” value [3] was “reduced the production of proinflammatory cytokines” and the “production of proinflammatory cytokines in challenged macrophages” value [4] was “reduced the production of proinflammatory cytokines”.
For `N=C(N)NCCC[C@@H]1NC(=O)[C@H](CCCCN)NC(=O)[C@H](CCCCN)NC(=O)[C@H](CCCNC(=N)N)NC(=O)[C@H](CCCNC(=N)N)NC(=O)[C@H](CCC(N)=O)NC(=O)[C@H](CCCNC(=N)N)NC(=O)[C@H](CCCNC(=N)N)NC(=O)[C@H](CCCNC(=N)N)NC(=O)[C@@H](N)CCCCNC(=O)CC[C@@H](C(N)=O)NC(=O)[C@H](Cc2ccc(O)cc2)NC(=O)CNC1=O` [cTAT] (H-KRRRQRRKKRGYE-NH2; lactam 1-13), the “ACN elution [%]” value [1] was 24%, the remaining at 1 h [5] was 49% and the remaining at 20 h [5] was 27%. For the same compound, the “cellular uptake, cyclic versus linear peptide” value [6] was “significantly higher cellular uptake”, the “cellular uptake, cyclic versus linear peptide” value [7] was “significantly higher cellular uptake” and the “DHFR activity in cell lysates” value [2, 11] was “no significant DHFR activity”.
In the case of `N=C(N)NCCC[C@H](NC(=O)[C@H](CCCCN)NC(=O)[C@H](CCCCN)NC(=O)[C@H](CCCNC(=N)N)NC(=O)[C@H](CCCNC(=N)N)NC(=O)[C@H](CCC(N)=O)NC(=O)[C@H](CCCNC(=N)N)NC(=O)[C@H](CCCNC(=N)N)NC(=O)[C@H](CCCNC(=N)N)NC(=O)[C@@H](N)CCCCN)C(=O)NCC(=O)N[C@@H](Cc1ccc(O)cc1)C(=O)N[C@@H](CCC(=O)O)C(N)=O` [linear peptide] (H-KRRRQRRKKRGYE-NH2; N-terminus assumed), the remaining at 1 h ([8]; 1 h incubation) is reported as 36%, the remaining at 20 h ([8]; 20 h post‐treatment) is reported as 15% and the “cellular uptake, cyclic versus linear peptide” value [6] is reported as “lower uptake at all studied time points”. For the same compound, the “cellular uptake, cyclic versus linear peptide” value [7] was “lower uptake at all studied time points”.
For `O=c1c(O)c(-c2cc(O)c(O)c(O)c2)oc2cc(O)cc(O)c12` [myricetin], the “PCFT expression compared with the untreated cells” value [9] was “significantly downregulated”.
In the case of “CONH2‐c[EYGRKKRRQRRRK]C(FL)‐NH‐folic acid (sidechain bridge or staple) [cTAT‐folic acid‐FL, fluorescein‐labeled cTAT‐folic acid conjugate, fluorescein on an inserted Cys]”, the “ACN elution [%]” value [1] is reported as 29.86%, the “difference in cellular uptake between acidic and physiological pH” value [10] is reported as “no significant difference” and the “cellular uptake upon ethanol treatment of the cells” value ([10]; physiological and acidic pH) is reported as “only partially inhibited”.
